Columns and labels:
[1] = Measurement of absorption spectrum and fluorescence excitation spectrum; type: physicochemical
Description: Measurement of an absorption spectrum and a fluorescence excitation spectrum of Fast Green FCF was performed. The Fast Green FCF (Wako Pure Chemical Industries, Ltd.) was adjusted to 1.0 mg/ml, and the light absorbance was continuously measured at a wavelength of from 200 to 750 nm using a spectrophotometer (manufactured by Shimadzu Corp., BioSpec-1600) to determine the wavelength at which the absorbance reached the maximum. The maximum absorption wavelength of 628 nm thus obtained was irradiated as an excitation wavelength, and the wavelength of the scattered light detected in the perpendicular direction to the light axis of the excitation light was measured using a fluorescence spectrophotometer (manufactured by Shimadzu Corp., RF-1500), thus to obtain a maximum excitation wavelength of 628 nm and a maximum fluorescence wavelength of 652 nm.

mouse large intestine = test: Confocal microscope observation of extracted large intestine piece stained with the stain (stain specificity)
Description: In order to find the stain specificity of the stain, Fast Green FCF (Wako Pure Chemical Industries, Ltd.) was diluted to a 2.0 mg/mL preparation using a 0.1 M sodium phosphate buffer solution (pH 7), and observation was performed using a confocal microscope (Leica Microsystems Corp., TCS-SP2).
For the sample, a mouse was subjected to laparotomy to extract the large intestine, which was then cut into a piece of 1 cm at every edge and stained with the stain.
The diameter of the confocal pinhole was 1.00 airy, and an oil immersion lens of 63 magnifications was used.
Staining was performed by immersion in the same manner as in Example 2, excitation was induced at a wavelength of 488 nm, and the fluorescent images were observed.
The conditions for the confocal microscope were the same, except for the wavelength of the irradiated laser.

[2] = tested on: tumor tissue developed in the upper part of the ovary of a rat; test: Extracted tumor tissue immersed in stain, confocal microscope observation (single and double staining)
Description: Fast Green FCF was prepared to 1.0 mg/mL using a 0.1 M sodium phosphate buffer solution (pH 7).
The tumor tissue of the rat was extracted and immersed in the prepared stain for 5 minutes to stain the tissue. The remaining unpenetrated portion of the Fast Green was washed off with a 0.1 M sodium phosphate buffer solution (pH 6), and observation was made using a confocal microscope.
The observation conditions were such that the pinhole diameter was 1.00 airy, and an oil immersion lens of 63 magnifications was used.
To verify the stainability at a tumor part, Monascus Yellow was used together with Fast Green FCF to perform double staining. The Monascus Yellow was prepared to 1.0 mg/mL using a 0.1 M sodium phosphate buffer solution (pH 6).

[3] = tested on: large intestine of a mouse; test: Stainability: stain solution injected into large intestine, confocal cross-section of the lumen; conditions: 1.0 mg/mL, pH 6, 100 μL injected; images at every 5.0 μm from the luminal surface
Description: Fast Green FCF was prepared to 1.0 mg/mL using a 0.1 M sodium phosphate buffer solution (pH 6), and 100 μL of the stain solution was injected into the large intestine of a mouse (ddY, 11 weeks old, male). To stain the large intestine evenly while preventing outflow of the stain, the mouse was subjected to laparotomy, and the stain was injected while clipping the upward colon side and the downward colon side of the extracted large intestine with hemostatic clips.
The imaging conditions were such that the diameter of the confocal pinhole was 1.00 airy, and a lens of 20 magnifications was used.

Duodenum = test: Tail vein administration, stainability for different regions: duodenum; type: in vivo, mouse
Description: (§1) An evaluation of the tissue stain composition of the present invention was performed for the stainability for different regions. Duodenum, large intestine and liver were extracted and observed.
(§2) Fast Green FCF was prepared to 10 mg/mL using physiological saline at pH 6.0. 100 μL of the prepared Fast Green FCF was administered to a mouse (ddY, 11 weeks old, male) through the tail vein, and the mouse was subjected to laparotomy after 5 minutes. The penetrability was observed by naked eyes, and the stainability and fluorescence were observed using a confocal microscope (Leica Microsystems Corp., TCP-SP2).
The conditions for the confocal microscopic observation were such that the diameter of the confocal pinhole was 1.00 airy, and an oil immersion lens of 63 magnifications was used.

large intestine = test: Tail vein administration, stainability for different regions: large intestine; type: in vivo, mouse; conditions: 10 mg/mL, 100 μL tail vein, laparotomy after 5 minutes
Description: as §1, §2
The conditions for the confocal microscopic observation were such that the diameter of the confocal pinhole was 1.00 airy, and a cross-sectional image of an area about 10 μm deep from the luminal surface, which image was taken using an oil immersion lens of 63 magnifications, is presented in FIG. 11.

[4] = tested on: large intestine extracted from a mouse; test: Stainability and tissue penetrability, fluorescence observation of frozen sections; conditions: 6 μm frozen sections, stained as in Example 3
Description: The stainability and tissue penetrability of Fast Green FCF (Fast Green GCF, Wako Pure Chemical Industries, Ltd.) were checked by observation of a tissue specimen.
A tissue specimen of the large intestine extracted from a mouse, which had been stained in the same manner as in Example 3, was embedded in an OCT Compound (Sakura Finetek Corp., Tissue-Tek O.C.T. compound), and was frozen by rapidly cooling with dry ice. The frozen section was sliced into 6 μm to prepare frozen sections, and fluorescence observation was performed. The fluorescence observation was performed using a confocal microscope (Leica Microsystems Corp., TCP-SP2) (imaging conditions: using a lens of 40 magnifications, pinhole diameter 171.3 μm).
A tissue section which was similarly embedded in the OCT compound was HE-stained, and the observation result is shown in FIG. 9 as a Comparative Example.

liver = test: Tail vein administration, stainability for different regions: liver; type: in vivo, mouse
Description: as §1, §2
Furthermore, the surrounding septum was more strongly stained. The conditions for the confocal microscopic observation were such that the diameter of the confocal pinhole was 1.00 airy, and a cross-sectional image of an area 10 μm deep from the luminal surface, which image was taken using an oil immersion lens of 63 magnifications, is presented in FIG. 12.

[5] = 10 mg/mL, 100 μL tail vein, laparotomy after 5 minutes

CCN(Cc1cccc(S(=O)(=O)[O-])c1)c1ccc(C(=C2C=CC(=[N+](CC)Cc3cccc(S(=O)(=O)[O-])c3)C=C2)c2ccc(O)cc2S(=O)(=O)[O-])cc1.[Na+].[Na+] [Fast Green FCF]
can be excited at, for example [1]: 628 nm
fluorescence detected at [1]: 652 nm
maximum absorption wavelength ([1]; 1.0 mg/ml, spectrophotometer 200 to 750 nm): 628 nm
maximum excitation wavelength ([1]; fluorescence spectrophotometer): 628 nm
maximum fluorescence wavelength ([1]; fluorescence spectrophotometer): 652 nm
fluorescent contrast in confocal image (mouse large intestine; 2.0 mg/mL, pH 7, He-Ne laser 633 nm, fluorescence 650 to 750 nm): provided fluorescent contrast to the images of the intercellular space of the mucosal epithelium of the large intestine
chromophilic regions, Fast Green FCF versus Fluorescite (mouse large intestine; Fluorescite excited at 488 nm, single and double-stained images): the stain and Fluorescite had different chromophilic regions
fluorescent contrast in confocal images ([2]; 1.0 mg/mL, pH 7, immersed 5 minutes): provided good fluorescent contrast for the connective tissue fibers in the tumor tissue
staining site in double staining ([2]; Monascus Yellow 1.0 mg/mL pH 6 together with Fast Green FCF): slightly stained the cells but more strongly stained the fibrous part
fluorescent contrast in confocal cross-sectional images [3]: provides good fluorescent contrast for the lamina propria mucosae
staining site under confocal microscope (Duodenum; [5]): Strong staining was achieved not in the cytoplasm but in the cellular membrane or intercellular space
staining visible by naked eyes (Duodenum; [5]): stained in deep-green color to an extent of being clearly visible by naked eyes
fluorescent contrast under a confocal microscope (Duodenum; epithelial cells): provides clear fluorescent contrast for the shape of the epithelial cells
contrast under a white light source (Duodenum; small intestinal villi): conferred contrast such that observation of the small intestinal villi under a white light source became feasible
color change visible by naked eyes (large intestine): did not show color changes that were clear enough to be visible by naked eyes
penetration of the dye (large intestine): the dye penetrated sufficiently to the extent that imaging by a confocal imaging system was possible
staining site under confocal microscope (large intestine): The intercellular space near the luminal surface, and the lamina propria mucosae were well stained
fluorescent contrast in frozen section, compared with HE staining [4]: provided good fluorescent contrast for the lamina propria mucosae
staining site under confocal microscope (liver; [5]): not only the intercellular space and cellular membrane as observed in the duodenum or large intestine but also the lobular parts were stained
fluorescent contrast under confocal microscope (liver; connective tissue in the liver): provided good contrast for the Glisson's capsule

From patent US20080045796A1, “HISTOFLUORESCENT STAIN COMPOSITION FOR ENDOSCOPY” (PENTAX CORPORATION, priority 2006, published 2008)
